# Test: recombinant UMI read abundance after kanamycin selection (control-corrected) (log10(CPM+1)); higher = more efficient recombination; extreme values may be limits of the assay; sequences stand for … in AGTGCAGAGAAAATCGGCCAGTTTTCTCTGCCTGCAGTCCGCATGCCGTGGGACCCCTTGGGTTCTAACCTGTTGCCTAGATTTATGCAGCGGACTGCCTTTCTCCCAAAGTGATAAACCGG…AGGTTGGTTTCACT; site = the 11-nt donor
# How it was run: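 The measure is log10(CPM+1) for recombinant UMIs. These were PCR-amplified across the donor–target junction and sequenced after Escherichia coli carrying a donor and donor-binding-loop pair library and a target plasmid with T7-inducible IS621 bridge recombinase was plated on IPTG (0.07 mM) plus kanamycin or unselected. CPM were averaged over two replicates and scaled by control-derived factors.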
# 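Note: IS621 bridge recombinase in Escherichia coli cells against a fixed T5 target plasmid.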
row,Sequence,recombinant UMI read abundance (log10)
1,TAACGAGCATGGACCGGTTTTCCCGGTAATCCGTATTTGGG (site TAACGAGCTCC),0.146
2,TAACGAGCATGGACCGGTTTTCCCGGTAATCCGTATTTGGG (site TAAGGAGCTCC),0.143
3,TAACGAGCATGGACCGGTTTTCCCGGTAATCCGTATTTGGG (site TAATGAGCTCC),0.0081
4,TAACGCACATGGACCGGTTTTCCCGGTAATCCGTATTTGGT (site TAACGCACTAC),0.736
5,TAACGGTCATGGACCGGTTTTCCCGGTAATCCGTATTTGGC (site TAACGGTCTGC),2.67
6,TAACGTTCATGGACCGGTTTTCCCGGTAATCCGTATTTGTA (site TAACGTTCTTA),1.16
7,TAAGCACCATGGACCGGTTTTCCCGGTAATCCGTATTTGAA (site TAAGCACCTTT),0.0176
8,TAAGCCACATGGACCGGTTTTCCCGGTAATCCGTATTTGAC (site TAAGCCACTGT),2.78
9,TAAGCCGCATGGACCGGTTTTCCCGGTAATCCGTATTTGGG (site TAAGCCGCTCC),0.0145
10,TAAGCGCCATGGACCGGTTTTCCCGGTAATCCGTATTTGTG (site AAAGCGCCTCA),0.0246
11,TAAGCGCCATGGACCGGTTTTCCCGGTAATCCGTATTTGTG (site CAAGCGCCTCA),0.0975
12,TAAGCGCCATGGACCGGTTTTCCCGGTAATCCGTATTTGTG (site GAAGCGCCTCA),0.032
13,TAAGCGCCATGGACCGGTTTTCCCGGTAATCCGTATTTGTG (site TAAGCGCCTCA),0.248
14,TAAGCTCCATGGACCGGTTTTCCCGGTAATCCGTATTTGCG (site TAAGCTCCTCG),0.303
15,TAAGGGGCATGGACCGGTTTTCCCGGTAATCCGTATTTGGC (site TAAGGGGCTGC),2.41
16,TAAGTGTCATGGACCGGTTTTCCCGGTAATCCGTATTTGCA (site TAAGTGTCTTG),3.32
17,TAATACTCATGGACCGGTTTTCCCGGTAATCCGTATTTGCA (site TAATACTCTTG),2.63
18,TAATACTCATGGACCGGTTTTCCCGGTAATCCGTATTTGCA (site TCATACTCTTG),1.69
19,TAATACTCATGGACCGGTTTTCCCGGTAATCCGTATTTGCA (site TGATACTCTTG),1.6
20,TAATACTCATGGACCGGTTTTCCCGGTAATCCGTATTTGCA (site TTATACTCTTG),1.68
21,TAATAGACATGGACCGGTTTTCCCGGTAATCCGTATTTGGC (site TAATAGACTGC),2.02
22,TAATCAGCATGGACCGGTTTTCCCGGTAATCCGTATTTGGG (site TAATAAGCTCC),0.00976
23,TAATCAGCATGGACCGGTTTTCCCGGTAATCCGTATTTGGG (site TAATCAGCTCC),0.0129
24,TAATCAGCATGGACCGGTTTTCCCGGTAATCCGTATTTGGG (site TAATGAGCTCC),0.00426
25,TAATCAGCATGGACCGGTTTTCCCGGTAATCCGTATTTGGG (site TAATTAGCTCC),0.0124

row,Sequence,recombinant UMI read abundance (log10)
1,TAATGAGCATGGACCGGTTTTCCCGGTAATCCGTATTTGGT (site TAATGAGCTAC),0.862
2,TAATGAGCATGGACCGGTTTTCCCGGTAATCCGTATTTGGT (site TAATGAGCTCC),0.00749
3,TAATGAGCATGGACCGGTTTTCCCGGTAATCCGTATTTGGT (site TAATGAGCTGC),0
4,TAATGAGCATGGACCGGTTTTCCCGGTAATCCGTATTTGGT (site TAATGAGCTTC),0.0263
5,TAATGATCATGGACCGGTTTTCCCGGTAATCCGTATTTGGG (site TAATGAACTCC),0.0159
6,TAATGATCATGGACCGGTTTTCCCGGTAATCCGTATTTGGG (site TAATGACCTCC),0.00916
7,TAATGATCATGGACCGGTTTTCCCGGTAATCCGTATTTGGG (site TAATGAGCTCC),0.0135
8,TAATGATCATGGACCGGTTTTCCCGGTAATCCGTATTTGGG (site TAATGATCTCC),0.594
9,TAATGGGCATGGACCGGTTTTCCCGGTAATCCGTATTTGGG (site TAATGAGCTCC),0.0138
10,TAATGGGCATGGACCGGTTTTCCCGGTAATCCGTATTTGGG (site TAATGCGCTCC),0.0166
11,TAATGGGCATGGACCGGTTTTCCCGGTAATCCGTATTTGGG (site TAATGGGCTCC),0.0225
12,TAATGGGCATGGACCGGTTTTCCCGGTAATCCGTATTTGGG (site TAATGTGCTCC),0.0203
13,TAATTAACATGGACCGGTTTTCCCGGTAATCCGTATTTGGT (site TAATTAACTAC),0.813
14,TAATTCCCATGGACCGGTTTTCCCGGTAATCCGTATTTGCT (site AAATTCCCTAG),0.531
15,TAATTCCCATGGACCGGTTTTCCCGGTAATCCGTATTTGCT (site CAATTCCCTAG),0.55
16,TAATTCCCATGGACCGGTTTTCCCGGTAATCCGTATTTGCT (site GAATTCCCTAG),1.7
17,TAATTCCCATGGACCGGTTTTCCCGGTAATCCGTATTTGCT (site TAATTCCCTAG),1.65
18,TACACCGCATGGACCGGTTTTCCCGGTAATCCGTATTTGAG (site TACACCGCTCT),0.702
19,TACACCGCATGGACCGGTTTTCCCGGTAATCCGTATTTGCG (site TACACCGCTCG),0.0108
20,TACACCGCATGGACCGGTTTTCCCGGTAATCCGTATTTGCG (site TCCACCGCTCG),0
21,TACACCGCATGGACCGGTTTTCCCGGTAATCCGTATTTGCG (site TGCACCGCTCG),0.0236
22,TACACCGCATGGACCGGTTTTCCCGGTAATCCGTATTTGCG (site TTCACCGCTCG),0.00838
23,TACAGCTCATGGACCGGTTTTCCCGGTAATCCGTATTTGGA (site TACAGCTCTTC),0.841
24,TACAGTCCATGGACCGGTTTTCCCGGTAATCCGTATTTGTA (site TAAAGTCCTTA),0
25,TACAGTCCATGGACCGGTTTTCCCGGTAATCCGTATTTGTA (site TACAGTCCTTA),0.128

row,Sequence,recombinant UMI read abundance (log10)
1,TACAGTCCATGGACCGGTTTTCCCGGTAATCCGTATTTGTA (site TAGAGTCCTTA),0.198
2,TACAGTCCATGGACCGGTTTTCCCGGTAATCCGTATTTGTA (site TATAGTCCTTA),0.00977
3,TACAGTTCATGGACCGGTTTTCCCGGTAATCCGTATTTGAG (site TACAGTTCTCT),1.31
4,TACATAACATGGACCGGTTTTCCCGGTAATCCGTATTTGCA (site TACATAACTTG),0.258
5,TACATATCATGGACCGGTTTTCCCGGTAATCCGTATTTGGG (site TACATATCTCC),0
6,TACATGACATGGACCGGTTTTCCCGGTAATCCGTATTTGGT (site TACATGACTAC),0.581
7,TACCACCCATGGACCGGTTTTCCCGGTAATCCGTATTTGAC (site TACCACCCTGT),0
8,TACCCAGCATGGACCGGTTTTCCCGGTAATCCGTATTTGCT (site TACCCAGCTAG),0.0305
9,TACCCATCATGGACCGGTTTTCCCGGTAATCCGTATTTGAG (site TACCCATCTCT),0.374
10,TACCCCTCATGGACCGGTTTTCCCGGTAATCCGTATTTGGC (site TACCCCTCTGC),3.09
11,TACCCGTCATGGACCGGTTTTCCCGGTAATCCGTATTTGCT (site TACCCGTCTAG),2.07
12,TACCGTCCATGGACCGGTTTTCCCGGTAATCCGTATTTGAT (site AACCGTCCTAT),0.0188
13,TACCGTCCATGGACCGGTTTTCCCGGTAATCCGTATTTGAT (site CACCGTCCTAT),0.00852
14,TACCGTCCATGGACCGGTTTTCCCGGTAATCCGTATTTGAT (site GACCGTCCTAT),0.00523
15,TACCGTCCATGGACCGGTTTTCCCGGTAATCCGTATTTGAT (site TACCGTCCTAT),0.00444
16,TACCTACCATGGACCGGTTTTCCCGGTAATCCGTATTTGAG (site TACCTACCTCT),0.0115
17,TACCTGACATGGACCGGTTTTCCCGGTAATCCGTATTTGGC (site TACCTGACTGC),0
18,TACGAATCATGGACCGGTTTTCCCGGTAATCCGTATTTGCG (site TAAGAATCTCG),0
19,TACGAATCATGGACCGGTTTTCCCGGTAATCCGTATTTGCG (site TACGAATCTCG),2.16
20,TACGAATCATGGACCGGTTTTCCCGGTAATCCGTATTTGCG (site TAGGAATCTCG),0.321
21,TACGAATCATGGACCGGTTTTCCCGGTAATCCGTATTTGCG (site TATGAATCTCG),2.1
22,TACGATACATGGACCGGTTTTCCCGGTAATCCGTATTTGGA (site TACGATACTTC),0.806
23,TACGCAACATGGACCGGTTTTCCCGGTAATCCGTATTTGAC (site TACGCAACTGT),2
24,TACGGAACATGGACCGGTTTTCCCGGTAATCCGTATTTGCA (site TACGGAACTTG),1.47
25,TACGTCGCATGGACCGGTTTTCCCGGTAATCCGTATTTGGA (site TACGTCGCTTC),1.08

# From the supplement of paper PMC11208160
